Reference: patent US9440962B2, “Benzisoxazoles” (Hoffmann-La Roche Inc., priority 2012, dated 2016)

Tests used:
[1] = tested on: human embryonic stem cell derived neural stem cells (NSCs); experiment: Neural stem cell proliferation assay (neurogenesis assay, ATP levels by CellTiterGlo); assay type: cell-based; conditions: 96 h, compound concentration at which 150% activity of control (100%) is reached, ATP levels after 4 days incubation, dose response 8 μM to 8 nM
Description: Neural Stem Cell Proliferation Assay
Neurogenic properties of small molecules are determined based on the proliferation of human embryonic stem cell derived neural stem cells (NSCs) which were derived via a dual smad inhibition as previously described (Chambers, S. M., et al., Highly efficient neural conversion of human ES and iPS cells by dual inhibition of SMAD signaling, Nature biotechnology, 2009. 27(3): p. 275-80.)
Compounds respond is measured by the increase in cells based on ATP levels (Promega:CellTiterGlo®) after an incubation period of 4 days.
NSCs are thawed and expanded over 3 passages. On the 14th day, NSCs are seeded in Polyornithin/Laminin coated 384 well plates at a cell density of 21′000 cells/cm^2 in a media volume of 38 μl.
4 hours after cell seeding, compound solutions are added at a volume of 2 μl. Stock solutions of the compounds (water, 5% DMSO) are diluted to obtain a dose response (11 points, dilution factor is 2), ranging from 8 μM to 8 nM. Controls are run to consistently determine the neurogenic properties of the cells: • Negative (neutral) control is cell culture Media (final DMSO concentration: 0.25%). Positive controls are: • 1. cell culture Media+100 ng/ml FGF2 (final DMSO concentration: 0.1%) • 2. cell culture Media+20 ng/ml EGF (final DMSO concentration: 0.1%) • 3. cell culture Media+100 ng/ml Wnt3a (final DMSO concentration: 0.1%)
After 4 days incubation at 37° C., 5% CO2, the amount of ATP per well is quantified. The ATP concentration is proportional to the cell number. ATP is quantified by using the Promega CellTiterGlo® kit. The CellTiterGlo® reagents contain a cell lysis buffer, a thermo stable luciferase (UltraGlo™ recombinant luciferase), magnesium and luciferin. Luciferin reacts with ATP producing oxyluciferin, AMP and light. The luminescence signal is proportional to the ATP content.
The value of negative (neutral) control is determined for each assay plate by taking the average of 16 negative control wells. The neurogenic compound response is calculated for each compound as (compound/Negative Control)* 100.
The values of EC150 from the dose response curve are determined for each test compound. The EC150 is the compound concentration at which 150% activity of control (100%) is reached.

Cc1ccc(-c2onc3ccc(-c4ccnn4-c4ccc(C)cc4)cc23)cc1 [Example 16, 3-p-Tolyl-5-(2-p-tolyl-2H-pyrazol-3-yl)-benzo[c]isoxazole]
EC (150% of control) [1]: 0.055 µM | melting point: 190 °C

Cc1ccc(-n2nccc2-c2ccc3noc(-c4ccc(C(F)(F)F)cc4)c3c2)cc1 [Example 17, 5-(2-p-Tolyl-2H-pyrazol-3-yl)-3-(4-trifluoromethyl-phenyl)-benzo[c]isoxazole]
EC (150% of control) [1]: 1.13 µM | melting point: 173 °C

Cc1ccc(-n2nccc2-c2ccc3noc(-c4ccc(Cl)cc4)c3c2)cc1 [Example 18, 3-(4-Chloro-phenyl)-5-(2-p-tolyl-2H-pyrazol-3-yl)-benzo[c]isoxazole]
EC (150% of control) [1]: 0.093 µM | melting point: 204 °C

COc1ccc(-c2onc3ccc(-c4ccnn4-c4ccc(C)cc4)cc23)cc1 [Example 19, 3-(4-Methoxy-phenyl)-5-(2-p-tolyl-2H-pyrazol-3-yl)-benzo[c]isoxazole]
EC (150% of control) [1]: 0.045 µM | melting point: 165 °C

COc1ccc(-n2nccc2-c2ccc3noc(-c4ccc(F)cc4)c3c2)cc1 [Example 20, 3-(4-Fluoro-phenyl)-5-[2-(4-methoxy-phenyl)-2H-pyrazol-3-yl]-benzo[c]isoxazole]
EC (150% of control) [1]: 0.36 µM | melting point: 179 °C

COc1ccc(-n2nccc2-c2ccc3noc(-c4cccc(F)c4)c3c2)cc1 [Example 21, 3-(3-Fluoro-phenyl)-5-[2-(4-methoxy-phenyl)-2H-pyrazol-3-yl]-benzo[c]isoxazole]
EC (150% of control) [1]: 0.51 µM | melting point: 203 °C

COc1ccc(-n2nccc2-c2ccc3noc(-c4ccc(C)cc4)c3c2)cc1 [Example 22, 5-[2-(4-Methoxy-phenyl)-2H-pyrazol-3-yl]-3-p-tolyl-benzo[c]isoxazole]
EC (150% of control) [1]: 0.18 µM | melting point: 159 °C

COc1ccc(-n2nccc2-c2ccc3noc(-c4ccc(Cl)cc4)c3c2)cc1 [Example 23, 3-(4-Chloro-phenyl)-5-[2-(4-methoxy-phenyl)-2H-pyrazol-3-yl]-benzo[c]isoxazole]
EC (150% of control) [1]: 0.31 µM | melting point: 177 °C

COc1ccc(-c2onc3ccc(-c4ccnn4-c4ccc(OC)cc4)cc23)cc1 [Example 24, 3-(4-Methoxy-phenyl)-5-[2-(4-methoxy-phenyl)-2H-pyrazol-3-yl]-benzo[c]isoxazole]
EC (150% of control) [1]: 0.26 µM | melting point: 133 °C

Fc1ccc(-c2onc3ccc(-c4ccnn4-c4ccc(Cl)cc4)cc23)cc1 [Example 25, 5-[2-(4-Chloro-phenyl)-2H-pyrazol-3-yl]-3-(4-fluoro-phenyl)-benzo[c]isoxazole]
EC (150% of control) [1]: 0.32 µM | melting point: 154 °C

Fc1cccc(-c2onc3ccc(-c4ccnn4-c4ccc(Cl)cc4)cc23)c1 [Example 26, 5-[2-(4-Chloro-phenyl)-2H-pyrazol-3-yl]-3-(3-fluoro-phenyl)-benzo[c]isoxazole]
EC (150% of control) [1]: 1.3 µM | melting point: 184 °C

Clc1ccc(-c2onc3ccc(-c4ccnn4-c4ccc(Cl)cc4)cc23)cc1 [Example 27, 3-(4-Chloro-phenyl)-5-[2-(4-chloro-phenyl)-2H-pyrazol-3-yl]-benzo[c]isoxazole]
EC (150% of control) [1]: 0.46 µM | melting point: 222 °C

Fc1ccc(-c2onc3ccc(-c4ccnn4-c4ccc(F)cc4F)cc23)cc1 [Example 28, 5-[2-(2,4-Difluoro-phenyl)-2H-pyrazol-3-yl]-3-(4-fluoro-phenyl)-benzo[c]isoxazole]
EC (150% of control) [1]: 0.07 µM | melting point: 149 °C

Fc1cccc(-c2onc3ccc(-c4ccnn4-c4ccc(F)cc4F)cc23)c1 [Example 29, 5-[2-(2,4-Difluoro-phenyl)-2H-pyrazol-3-yl]-3-(3-fluoro-phenyl)-benzo[c]isoxazole]
EC (150% of control) [1]: 0.25 µM | melting point: 165 °C

Cc1ccc(-c2onc3ccc(-c4ccnn4-c4ccc(F)cc4F)cc23)cc1 [Example 30, 5-[2-(2,4-Difluoro-phenyl)-2H-pyrazol-3-yl]-3-p-tolyl-benzo[c]isoxazole]
EC (150% of control) [1]: 0.04 µM | melting point: 147 °C
